Laboratory results published in patent US20110223202A1, “CATIONIC CORE-SHELL PEPTIDE NONOPARTICLES” (priority 2007, published 2011).
Values after ≈ are worked out from the molar mass of the structure shown. Where two headings read alike, the source gives them in different places. No end group written: not given here.

How the values were obtained:
Assay type in all cases: cell-based
Bacillus subtilis = experiment: microbe, parasite or virus in culture; settings: read-out: MIC against Bacillus subtilis
Experimental: Bacillus subtilis, Candida albicans and Stachybotrys chartarum (ATCC) were grown in tryptic soy broth at 37° C., yeast mold broth at 24° C. and tryptic soy broth at 26° C., respectively. The MICs of the peptides or peptide nanoparticles were measured using a broth microdilution method. Briefly, 50 μL of peptide and peptide nanoparticle solutions with a concentration of 7.1 to 142 μM was placed into each well of 96-well plates. 50 μL of microorganism solution was added to each well to give an optical density reading of 0.1 to 0.2 at 600 nm. […] Broth containing cells alone was used as control. The tests were repeated three times.

Candida albicans = settings: broth microdilution, no growth observed
Experimental: (§1) Bacillus subtilis, Candida albicans and Stachybotrys chartarum (ATCC) were grown in tryptic soy broth at 37° C., yeast mold broth at 24° C. and tryptic soy broth at 26° C., respectively. The MICs of the peptides or peptide nanoparticles were measured using a broth microdilution method. Briefly, 50 μL of peptide and peptide nanoparticle solutions with a concentration of 7.1 to 142 μM was placed into each well of 96-well plates. 50 μL of microorganism solution was added to each well to give an optical density reading of 0.1 to 0.2 at 600 nm. The cell cultures were then incubated for 15, 12/16 and 170 hours for Bacillus subtilis, Candida albicans and Stachybotrys chartarum respectively, and the MIC was taken at the concentration at which no growth was observed. Broth containing cells alone was used as control. The tests were repeated three times.

Stachybotrys chartarum = experiment: microbe, parasite or virus in culture; settings: broth microdilution, no growth observed, read-out: MIC against Stachybotrys chartarum
Experimental: as §1

rat red blood cells = experiment: Hemolysis assay; settings: at concentrations lower than its MIC
Experimental: Fresh rat red blood cells were washed with PBS for three times. 100 μL of red blood cells suspended in PBS (4% in volume) was placed in each well of 96-well plates and 100 μL of peptide nanoparticle or amphotericin B solution was added to each well. The plates were incubated for one hour at 37° C. The cell suspensions were taken out and centrifuged at 1000 g for 5 minutes. Aliquots (100 μL) of supernatant were transferred to 96-well plates, and hemoglobin release was monitored at 576 nm using a microplate reader (Bio-Teck Instruments, Inc). Percentage of hemolysis was calculated using the following formula: Hemolysis (%)=[(O.D.576 nm in the nanoparticle solution−O.D.576 nm in PBS)/(O.D.576 nm in 0.1% Triton X-100−O.D.576 nm in PBS)]×100. In vivo studies.

[1] = broth microdilution, no growth observed

| Compound | MIC (Bacillus subtilis; [1]) | MIC against Candida albicans (Candida albicans) | also measured |
| --- | --- | --- | --- |
| C[C@H]1c2cccc(O)c2C(=O)C2=C(O)[C@]3(O)C(=O)C(C(N)=O)=C(O)[C@@H](N(C)C)[C@@H]3[C@@H](O)[C@@H]21 [doxycycline] | – | – | MIC (Bacillus subtilis; Bacillus subtilis, FIG. 12, 16 hours of incubation): 13.5 µM (≈ 6 µg/mL) |
| N=C(N)NCCC[C@H](NC(=O)[C@H](CCCNC(=N)N)NC(=O)[C@H](CCCNC(=N)N)NC(=O)[C@H](CCC(N)=O)NC(=O)[C@H](CCCNC(=N)N)NC(=O)[C@H](CCCNC(=N)N)NC(=O)[C@H](CCCCN)NC(=O)[C@H](CCCCN)NC(=O)[C@H](CCCNC(=N)N)NC(=O)CNC(=O)[C@H](Cc1ccc(O)cc1)NC(=O)CNC(=O)CNC(=O)CN)C(N)=O [G3TAT] | 290.0 µM (≈ 502 µg/mL) | 289.0 µM (≈ 500 µg/mL) | – |
| GGGRRRRRR-NH2 (C-terminus assumed) [G3R6] | > 444.4 µM | > 444.4 µM | – |
| GGGRRRRRRYGRKKRRQRRR-NH2 [G3R6TAT] | 75.0 µM | 75.0 µM | – |
| OC(Cn1cncn1)(Cn1cncn1)c1ccc(F)cc1F [fluconazole] | – | – | MIC (Stachybotrys chartarum; Stachybotrys chartarum): > 817 µM |
| C[C@@H]1[C@H](O)[C@@H](C)/C=C/C=C/C=C/C=C/C=C/C=C/C=C/[C@H](O[C@@H]2O[C@H](C)[C@@H](O)[C@H](N)[C@@H]2O)C[C@@H]2O[C@](O)(C[C@@H](O)C[C@@H](O)[C@H](O)CC[C@@H](O)C[C@@H](O)CC(=O)O[C@H]1C)C[C@H](O)[C@H]2C(=O)O [amphotericin B] | – | – | MIC (Stachybotrys chartarum): > 54.0 µM; hemolysis (rat red blood cells): more than 90% |
| CC1(C)S[C@@H]2[C@H](NC(=O)Cc3ccccc3)C(=O)N2[C@H]1C(=O)O [penicillin G] | – | – | MIC (Bacillus subtilis; FIG. 12, 16 hours of incubation): 1074 µM (≈ 359 µg/mL) |
| N=C(N)NCCC[C@H](NC(=O)[C@H](CCCNC(=N)N)NC(=O)[C@H](CCCNC(=N)N)NC(=O)[C@H](CCCNC(=N)N)NC(=O)[C@H](CCCNC(=N)N)NC(=O)[C@H](CCCNC(=N)N)NC(=O)[C@H](CCCNC(=N)N)NC(=O)[C@H](CCCNC(=N)N)NC(=O)[C@H](CCCNC(=N)N)NC(=O)[C@H](CCCNC(=N)N)NC(=O)[C@H](CCCNC(=N)N)NC(=O)[C@H](CCCNC(=N)N)NC(=O)CNC(=O)CNC(=O)CN)C(N)=O [G3R12] | 242.0 µM (≈ 499 µg/mL) | 242.0 µM (≈ 499 µg/mL) | – |
